Like-named read-outs stand apart in the source and are kept apart here.
Legend:
Beagle dogs = test: Clinical Observation/Cageside Observation of dogs treated with compound 1 (Example 1); format: in vivo
Method: (§1) Animals were dosed with N-1-pyrrolidine-N-5-(3-trifluoromethoxy)phenyl biguanide acetate salt as specified in Table 1. Dosages were freshly prepared on the day of dosing. The PO (per os) solution was DI water. The enteric capsule was HMPC enteric-coated capsules. The test substance was prepared and used immediately before administration. The preparation method was to weigh N-1-pyrrolidine-N-5-(3-trifluoromethoxy)phenyl biguanide and add sterile distilled water. The mixture was titrated to final volumes by mixing via sonication for 2 minutes and vortexing for 5 minutes. During the administration time, the preparation was handled at room temperature. All animals for IV administration had free access to food and water. Animals for PO were fasted overnight prior to dosing and were fed approximately 2 hours after dosing. Group 2 shared the same 2 animals. Animals in PO_A arm were dosed first. After 2 days washout period, animals in PO_B arm were dosed. After 2 days washout period, animals in PO_C arm were dosed. Clinical observations of animals treated with compound 1 were recorded as specified in Tables 3-5.

[1] = set-up: species or system Beagle dogs; settings: dog, in vivo, po
Method: as §1
Plasma for both IV and PO dosing was sampled from animals pre-dose, and 5 minutes, 15 minutes, 30 minutes, 1 hour, 2 hours, 4 hours, 8 hours, and 24 hours post dose.
Samples were collected via venipuncture of peripheral veins except the dosing vein. 0.3 mL of blood was drawn per time point. The anticoagulant used was potassium EDTA. Whole blood samples were gently inverted several times to ensure anticoagulation then placed on wet ice prior to centrifugation. Within 30 minutes of collection, the samples were centrifuged at approximately 2000×g (force) for 10 minutes at 2 to 8° C. to obtain plasma. The resultant plasma samples were immediately separated divided into 2 aliquots (˜[…] each) and transferred to cryogenic vial. Samples were maintained on wet ice throughout processing and stored in a freezer at −75±15° C. prior to analysis.
The standard curve was run in duplicate with a minimum of six standards, and a minimum of five standards and the LLOQ should fall within ±20% of the nominal value. Verapamil and dexamethasone were normally used as internal standards. […] A minimum of duplicate QC's at three concentrations (low, mid, and high QC) were incorporated into each run with the low QC no more than 3×LLOQ, the mid QC around the middle of the curve, and the high QC should be near the ULOQ (minimally 80% but less than 100% of the value of the highest standard) for the run and the mean value should be within ±20% of the theoretical value. The results of the QC's provide the basis for accepting or rejecting the run. At least 67% or four of six QC's should be within 20% of their respective nominal values; 33% of the QC's (not replicates of the same concentration) can fall outside 20% of nominal value. The simplest model that adequately describes the concentration-response relationship should be used. Linear or quadratic regression can be used. Weighting was 1/x or 1/x2.
Concentrations of Test Article in the plasma samples were analyzed using a LC-MS/MS method. WinNonlin (Phoenix™, version 6.1) or other similar software will be used for pharmacokinetic calculations. The following pharmacokinetic parameters were be calculated, whenever possible from the plasma concentration versus time data: PO administration: T1/2, Cmax, Tmax, MRTinf, AUCinf, AUClast, F%, Number of Points for Regression (FIG. 1). […]

human subjects [2] = settings: in vivo
Method: A phase 1 clinical study investigating the safety and tolerability of compound 1 in human subjects was conducted. Healthy volunteers were administered either an uncoated tablet at 100 mg QD (cohort 1, N=6), 200 mg QD (cohort 2, N=6), or 400 mg QD (cohort 3, N=6), or a coated tablet at 400 mg (cohort 4, N=6) or 800 mg QD (cohort 5, N=6), and the compound 1 plasma concentration achieved by the subjects was recorded over time (FIGS. 2 and 4). Cancer patients were administered either an uncoated tablet at 100 mg QOD (cohort 1, N=3), 200 mg QOD (cohort 2, N=3), 400 mg QOD (cohort 3, N=3), 800 mg QOD (cohort 4, N=3), or 1200 mg QOD (cohort 5, N=3), or were administered an uncoated tablet at 800 mg QD (cohort 6, N=3) or 1200 mg QD (cohort 7, N=4), and the compound 1 plasma concentration achieved by the subjects was recorded over time (FIGS. 3 and 4).

human subjects [3] = settings: in vivo; remark: listed apart in the source
Method: A phase 1 clinical study investigating the safety and tolerability of compound 1 in human subjects was conducted. Healthy volunteers were administered either an uncoated tablet at 100 mg QD (cohort 1, N=6), 200 mg QD (cohort 2, N=6), or 400 mg QD (cohort 3, N=6), or a coated tablet at 400 mg (cohort 4, N=6) or 800 mg QD (cohort 5, N=6), and the compound 1 plasma concentration achieved by the subjects was recorded over time (FIGS. 2 and 4). Cancer patients were administered either an uncoated tablet at 100 mg QOD (cohort 1, N=3), 200 mg QOD (cohort 2, N=3), 400 mg QOD (cohort 3, N=3), 800 mg QOD (cohort 4, N=3), or 1200 mg QOD (cohort 5, N=3), or were administered an uncoated tablet at 800 mg QD (cohort 6, N=3) or 1200 mg QD (cohort 7, N=4), and the compound 1 plasma concentration achieved by the subjects was recorded over time (FIGS. 3 and 4). A phase 1 clinical study investigating the safety and tolerability of compound 1 in human subjects was conducted. 22 subjects with solid tumors were enrolled and split into seven cohorts. Cohort 1 received 100 mg QOD, cohort 2 received 200 mg QOD, cohort 3 received 400 mg QOD, cohort 4 received 800 mg QOD, cohort 5 received […], cohort 6 received 800 mg QD, and cohort 7 received 1,200 mg QD.

Structure (SMILES): N=C(NC(=N)N1CCCC1)Nc1cccc(OC(F)(F)F)c1 [compound 1, N-1-pyrrolidine-N-5-(3-trifluoromethoxy)phenyl biguanide]
- Notes: tolerability (Beagle dogs; PO A, HPMC Enteric Coating Capsule, vs Initial Formulation and Dosing (PO B)): Improved
- Notes: tolerability (Beagle dogs; PO C, Zofran given prior to compound 1 dosing): no difference
- Loose feces observed, timepoint (Beagle dogs; dog, in vivo): d. Loose feces was observed from POC-4(8319440) at 8 h timepoint
- Comment present (Beagle dogs; dog, in vivo, 100 mg/kg): No
- Discoloration (Beagle dogs; dog, in vivo, 100 mg/kg): No
- Dyspnea (labored breathing) (Beagle dogs; dog, in vivo, 100 mg/kg): No
- Emesis observed, timepoint (Beagle dogs; dog, in vivo, 100 mg/kg): c. “Loose feces” and “emesis” were observed from POA-4(8319440) at 4 h timepoint
- Feces with abnormal content (Beagle dogs; dog, in vivo, 100 mg/kg): No
- Few feces (Beagle dogs; dog, in vivo, 100 mg/kg): No
- Frothy (Beagle dogs; dog, in vivo, 100 mg/kg): No
- Loose feces (Beagle dogs; dog, in vivo, 100 mg/kg): Yes(f)
- Reduced food intake (Beagle dogs; dog, in vivo, 100 mg/kg): No
- Soft Stool (Beagle dogs; dog, in vivo, 100 mg/kg): No
- Soft stool observed, timepoint (Beagle dogs; dog, in vivo, 100 mg/kg): f. Soft stool was observed from POA-3(8310744) and POA-4(8319440) at 24 h timepoint
- Some broken capsule found in the loose feces, timepoint (Beagle dogs; dog, in vivo, 100 mg/kg): b. Some broken capsule was found in the loose feces at 30 min timepoint from POA-3
- Temperature Drop (Beagle dogs; dog, in vivo, 100 mg/kg): No
- Temperature Rise (Beagle dogs; dog, in vivo, 100 mg/kg): No
- Torpidity (Beagle dogs; dog, in vivo, 100 mg/kg): No
- Tremor (slight) (Beagle dogs; dog, in vivo, 100 mg/kg): No
- Uncoordinated movement (Beagle dogs; dog, in vivo, 100 mg/kg): No
- Weight drop (Beagle dogs; dog, in vivo, 100 mg/kg): No
- Comment present (Beagle dogs; dog, in vivo, iv, 10 mg/kg): No
- Diarrhea (Beagle dogs; dog, in vivo, iv, 10 mg/kg): No
- Discoloration (Beagle dogs; dog, in vivo, iv, 10 mg/kg): No
- Dyspnea (labored breathing) (Beagle dogs; dog, in vivo, iv, 10 mg/kg): No
- Feces with abnormal content (Beagle dogs; dog, in vivo, iv, 10 mg/kg): No
- Few feces (Beagle dogs; dog, in vivo, iv, 10 mg/kg): No
- Frothy (Beagle dogs; dog, in vivo, iv, 10 mg/kg): No
- Loose feces (Beagle dogs; dog, in vivo, iv, 10 mg/kg): No
- Reduced food intake (Beagle dogs; dog, in vivo, iv, 10 mg/kg): No
- Soft Stool (Beagle dogs; dog, in vivo, iv, 10 mg/kg): No
- Temperature Drop (Beagle dogs; dog, in vivo, iv, 10 mg/kg): No
- Temperature Rise (Beagle dogs; dog, in vivo, iv, 10 mg/kg): No
- Torpidity (Beagle dogs; dog, in vivo, iv, 10 mg/kg): No
- Tremor (slight) (Beagle dogs; dog, in vivo, iv, 10 mg/kg): No
- Uncoordinated movement (Beagle dogs; dog, in vivo, iv, 10 mg/kg): No
- Weight drop (Beagle dogs; dog, in vivo, iv, 10 mg/kg): No
- Notes: AUC [1]: Improved AUC
- Notes: Bioavailability [1]: Improved
- Notes: PK [1]: no difference in PK
- AUCInf ([1]; 100 mg/kg): 10750 ng·h/mL
- T1/2 ([1]; 100 mg/kg): 6.65 h
- Gastrointestinal adverse events (human subjects [2]): Low-grade gastrointestinal adverse events were prominent
- Adverse events reported, character (human subjects [3]): primarily GI, low-grade, monitorable, manageable, and reversible
- Dose limiting toxicities (human subjects [3]): no dose limiting toxicities
- Dose suggested as suitable for phase 2 studies (human subjects [3]): 800 mg QD
- Gastrointestinal adverse events (human subjects [3]): Low-grade gastrointestinal adverse events were prominent

— patent US20230000820A1, “SOLID DOSAGE FORM OF N-1-PYRROLIDINE-N-5-(3-TRIFLUOROMETHOXY)PHENYL BIGUANIDE AND USES THEREOF” (ImmunoMet Therapeutics, Inc., priority 2021, published 2023)
